Where a name gives a salt, the structure may show the parent alone.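 Dose response: 5 concentrations. Exposure: 48 h. Format: 96-well plates. Endpoint: linear interpolation; highest concentration if not reached. The concentration for 50% growth inhibition is given as GI50.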 Activity calls are given as the source filed them. Cut-off read from the data, not from the text of the source: active = GI50 up to about 1.1 µM and inactive = higher.

From ChEMBL document CHEMBL1201862, “PubChem BioAssay data set” (2004) come the findings set out here.

Test systems include NCI-H460; KM12; NCI-H522; CCRF-CEM; K562; 786-0; IGROV-1; CAKI-1; DLD-1; M14; SF-539; RPMI-8226; RXF 393; TK-10; SK-MEL-2; OVCAR-5; SF-268.
Holding throughout (test): NCI-60 cell line screen, 48 h

Consider `CC1CC2(CCC1OCc1ccccc1)OCCO2` (stereo not drawn), for which the GI50 in the assay on NCI-H460, with KM12, with NCI-H522, with CCRF-CEM, in the assay on K562 and in the assay on 786-0 was > 100 µM (inactive) throughout. Also, the GI50 in the assay on IGROV-1, with CAKI-1, with DLD-1, in the assay on M14, in the assay with SF-539 and in the assay with RPMI-8226 was > 100 µM (inactive) in each case. Besides, the GI50 with RXF 393, in the assay with TK-10 and in the assay on SK-MEL-2 was > 100 µM (inactive) throughout.

`C[n+]1cc(C(O)c2ccc3c(c2)OCO3)c2ccccc2c1` (stereo not drawn): the GI50 in the assay with NCI-H460 is 40.3 µM (inactive); in the assay with KM12, 38.3 µM (inactive); in the assay with NCI-H522, 16 µM (inactive); with CCRF-CEM, 29.9 µM (inactive); in the assay with K562 it was 25.1 µM (inactive); in the assay on 786-0, 36.5 µM (inactive). Further, the GI50 in the assay on OVCAR-5 was > 100 µM (inactive); in the assay with IGROV-1, 47.4 µM (inactive); with CAKI-1 it was 13.9 µM (inactive); with SF-268 it was 28.6 µM (inactive); in the assay on DLD-1 it was 31.8 µM (inactive); with M14, 25.4 µM (inactive). Further, the GI50 is 30.2 µM (inactive) in the assay on SF-539; 13.9 µM (inactive) with RPMI-8226; 14.1 µM (inactive) with RXF 393; 36.8 µM (inactive) in the assay with TK-10; 26.2 µM (inactive) with SK-MEL-2.

For `CCOC(=O)CC(C)C1(C=O)CCCCC1=O` (stereo not drawn), the GI50 with NCI-H460 was 60 µM (inactive); in the assay on KM12, > 100 µM (inactive); in the assay with NCI-H522, 90.4 µM (inactive); in the assay with CCRF-CEM, 41.8 µM (inactive); with K562, > 100 µM (inactive); in the assay with 786-0 it was 31 µM (inactive). For the same molecule, the GI50 was > 100 µM (inactive) in the assay on OVCAR-5; > 100 µM (inactive) in the assay with IGROV-1; > 100 µM (inactive) in the assay on CAKI-1; > 100 µM (inactive) in the assay with SF-268; 56 µM (inactive) in the assay with DLD-1; 29.6 µM (inactive) in the assay with M14. For the same molecule, the GI50 in the assay with SF-539 is > 100 µM (inactive); in the assay on RPMI-8226 it was 20.6 µM (inactive); with RXF 393, > 100 µM (inactive); with TK-10 it was > 100 µM (inactive); in the assay on SK-MEL-2, > 100 µM (inactive).

With `COc1ccc2c(c1)CCC1C3(CCCC21C)OCCO3` (stereo not drawn), the GI50 in the assay with NCI-H460 was 16.3 µM (inactive); in the assay with KM12, 20.3 µM (inactive); in the assay with NCI-H522, 15.7 µM (inactive); with CCRF-CEM it was 16.9 µM (inactive); in the assay on K562, 15.4 µM (inactive); with 786-0, 18.5 µM (inactive). For the same molecule, the GI50 with OVCAR-5 is 27 µM (inactive); in the assay with IGROV-1, 28.8 µM (inactive); with CAKI-1, 34.6 µM (inactive); in the assay on SF-268, 6.9 µM (inactive); with DLD-1, 15.7 µM (inactive); in the assay on M14, 18.8 µM (inactive). In addition, the GI50 in the assay on SF-539 was 12.9 µM (inactive); with RPMI-8226 it was 18.8 µM (inactive); in the assay on RXF 393 it was 13.7 µM (inactive); in the assay on TK-10, 36.8 µM (inactive); in the assay with SK-MEL-2, 4.7 µM (inactive).

For `O=C(/C=C/c1ccccc1Cl)c1ccc(Cl)c(Cl)c1`, the GI50 in the assay on NCI-H460 is 34.5 µM (inactive); in the assay on KM12, 15.8 µM (inactive); in the assay with NCI-H522, 17.3 µM (inactive); in the assay on CCRF-CEM it was 26.4 µM (inactive); in the assay with K562, 26.8 µM (inactive); with 786-0, 16.3 µM (inactive). Besides, the GI50 was 17.6 µM (inactive) in the assay with OVCAR-5; 12.4 µM (inactive) in the assay on IGROV-1; 15.4 µM (inactive) in the assay with CAKI-1; 18.3 µM (inactive) with SF-268; 15.8 µM (inactive) in the assay on DLD-1; 17.5 µM (inactive) with M14. Moreover, the GI50 in the assay with SF-539 is 18.2 µM (inactive); in the assay with RPMI-8226, 37.7 µM (inactive); in the assay with RXF 393 it was 13.1 µM (inactive); in the assay with TK-10, 18.5 µM (inactive); in the assay with SK-MEL-2, 18 µM (inactive).

For the molecule `CNC(=O)NCCCCC(NC(C)=O)C(=O)NCc1ccccc1` (stereo not drawn), the GI50 in the assay with NCI-H460 was > 100 µM (inactive); with KM12, > 100 µM (inactive); in the assay on NCI-H522, > 100 µM (inactive); in the assay on CCRF-CEM, > 100 µM (inactive); with K562 it was > 10 µM (inactive); in the assay with 786-0, > 100 µM (inactive). The GI50 in the assay on OVCAR-5, in the assay with IGROV-1, in the assay with CAKI-1, in the assay on SF-268, in the assay on DLD-1 and in the assay on M14 was > 100 µM (inactive) throughout. The GI50 in the assay on SF-539, with RPMI-8226, with RXF 393, in the assay on TK-10 and in the assay with SK-MEL-2 was > 100 µM (inactive) in each case.

In the case of `COc1ccc(CN2C(=O)[C@@H]3Cc4c(OC)c(C)c(OC)c(OC)c4[C@H](/C2=C\c2cc(OC)c(OC)c(C)c2OC)N3C(=O)OC(C)C)cc1`, the GI50 in the assay on NCI-H460 is 15.8 µM (inactive); in the assay on KM12 it was > 100 µM (inactive); in the assay with NCI-H522, 8.75 µM (inactive); in the assay with CCRF-CEM, 35.4 µM (inactive); in the assay with K562, 25.3 µM (inactive); in the assay with 786-0, > 100 µM (inactive). For the same molecule, the GI50 in the assay on OVCAR-5 is > 100 µM (inactive); with IGROV-1, > 100 µM (inactive); in the assay with CAKI-1, 30.3 µM (inactive); in the assay with SF-268 it was > 100 µM (inactive); with DLD-1, 69.3 µM (inactive); with M14, 28.4 µM (inactive). For the same molecule, the GI50 with SF-539 was > 100 µM (inactive); with RPMI-8226, 8.34 µM (inactive); in the assay with RXF 393, 80.4 µM (inactive); in the assay on TK-10, 78 µM (inactive); in the assay on SK-MEL-2, 91.8 µM (inactive).

Take `COc1ccc(C(C#N)NNC(=O)c2ccccc2O)cc1OC` (stereo not drawn): the GI50 is 0.478 µM (active) with NCI-H460; 0.807 µM (active) with KM12; 3.28 µM (inactive) in the assay on NCI-H522; 1.21 µM (inactive) in the assay with CCRF-CEM; 0.356 µM (active) in the assay with K562; 1.24 µM (inactive) in the assay on 786-0. The GI50 with OVCAR-5 is 15.1 µM (inactive); in the assay with IGROV-1, 0.547 µM (active); with CAKI-1 it was 0.394 µM (active); in the assay on SF-268, 0.468 µM (active); in the assay with DLD-1, 0.9 µM (active); in the assay on M14, 0.75 µM (active). In addition, the GI50 was 0.705 µM (active) in the assay on SF-539; 4.24 µM (inactive) with RPMI-8226; 0.902 µM (active) with RXF 393; 14.6 µM (inactive) in the assay with TK-10; 0.667 µM (active) in the assay with SK-MEL-2.

Regarding `CCOC(=O)N1CCN(P(=O)(Nc2ccc3[nH]c(NC(=O)OC)nc3c2)Oc2ccccc2)CC1` (stereo not drawn), the GI50 in the assay with NCI-H460 was > 100 µM (inactive); in the assay with KM12, > 100 µM (inactive); in the assay with NCI-H522, 37.5 µM (inactive); with CCRF-CEM, 86.1 µM (inactive); in the assay on K562 it was 35 µM (inactive); in the assay on 786-0 it was > 100 µM (inactive). The GI50 in the assay on OVCAR-5, with IGROV-1, in the assay with CAKI-1, in the assay on SF-268, in the assay on DLD-1 and with M14 was > 100 µM (inactive) each time. The GI50 is 81.8 µM (inactive) in the assay on RPMI-8226, > 100 µM (inactive) in the assay on RXF 393, > 100 µM (inactive) in the assay with TK-10 and > 100 µM (inactive) in the assay on SK-MEL-2.

On to `CC/C(C)=C1\CCC(CN(C)C)C1=O` (stereo not drawn), for which the GI50 with NCI-H460 is 19.3 µM (inactive); in the assay on KM12, 15 µM (inactive); in the assay on CCRF-CEM, 15.9 µM (inactive); with K562, 20 µM (inactive); in the assay on 786-0 it was 15.8 µM (inactive); with OVCAR-5, 19.1 µM (inactive). Besides, the GI50 was 20 µM (inactive) with IGROV-1; 1.91 µM (inactive) in the assay with CAKI-1; 25.4 µM (inactive) with SF-268; 16.4 µM (inactive) in the assay with DLD-1; 19.5 µM (inactive) in the assay with M14; 18.7 µM (inactive) in the assay on SF-539. Also, the GI50 in the assay with RPMI-8226 is 2.82 µM (inactive); in the assay with RXF 393, 20.7 µM (inactive); in the assay with TK-10 it was 17.3 µM (inactive); with SK-MEL-2 it was 17.6 µM (inactive).

As to `CCOC(=O)C1=C(C)CC2C(=O)OC(=O)C2C1(C)C` (stereo not drawn), the GI50 with NCI-H460, in the assay on KM12, in the assay with NCI-H522, with CCRF-CEM, in the assay on K562 and in the assay on 786-0 was > 100 µM (inactive) in each case. The GI50 in the assay on OVCAR-5, in the assay with IGROV-1, with SF-268, in the assay on DLD-1, in the assay with M14 and in the assay on SF-539 was > 100 µM (inactive) throughout. Moreover, the GI50 in the assay with RPMI-8226, in the assay with RXF 393, with TK-10 and with SK-MEL-2 was > 100 µM (inactive) each time.

On to `CC(NC(C)(C)C)C(=O)c1cccc(Cl)c1` (stereo not drawn) [BUPROPION HYDROCHLORIDE], for which the GI50 with NCI-H460, with KM12, in the assay on NCI-H522, with CCRF-CEM, in the assay with K562 and in the assay on 786-0 was > 100 µM (inactive) throughout. Besides, the GI50 in the assay on IGROV-1, in the assay on CAKI-1, in the assay on SF-268, in the assay with DLD-1, in the assay on M14 and with SF-539 was > 100 µM (inactive) in each case. Besides, the GI50 in the assay on RPMI-8226, with RXF 393, in the assay with TK-10 and in the assay with SK-MEL-2 was > 100 µM (inactive) each time.
